Reference: the supplement of paper PMC10331698
± gives the standard deviation of the averaged measurements.

Assays:
Assay in all cases: level (log10 ratio to DMSO vehicle control); higher = higher biomarker level / cell amount than vehicle control
[1] = compound: O=C(O)C(F)(F)C(F)(F)C(F)(F)OC(F)(F)F [Perfluoro(4-methoxybutanoic) acid] (in DMSO)
Description: (§1)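 BioMAP Diversity Plus panel of 12 human primary cell co-culture systems (3C, 4H, LPS, SAg, BT, BF4T, BE3C, CASM3C, HDF3CGF, KF3CT, MyoF, Mphg). Compounds were added 1 h before stimulation and left for 24 h (MyoF 48 h; BT 72 h for soluble read-outs or 6 d for IgG). Biomarkers were read by ELISA, cytotoxicity by SRB, PBMC viability and proliferation by Alamar Blue. Each well value was divided by the mean of 8 DMSO control wells on the same plate and log10 transformed; duplicate blinded samples were tested at 4 concentrations.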

[2] = compound: C[C@@H]1C[C@H]2[C@@H]3CCC4=CC(=O)C=C[C@]4(C)[C@@]3(F)[C@@H](O)C[C@]2(C)[C@@]1(O)C(=O)COP(=O)(O)O [Dexamethasone sodium phosphate] (in DMSO)
Description: as §1

[3] = compound: OCC(F)(F)C(F)(F)C(F)(F)C(F)F [1H,1H,5H-Perfluoropentanol] (in DMSO)
Description: as §1

[4] = compound: O=S(=O)(O)C(F)(F)C(F)(F)C(F)(F)C(F)(F)C(F)(F)C(F)(F)C(F)(F)F [Perfluoroheptanesulfonic acid] (in DMSO)
Description: as §1

[5] = compound: OCC(F)(F)C(F)(F)C(F)(F)C(F)(F)C(F)(F)C(F)(F)CO [1H,1H,8H,8H-Perfluorooctane-1,8-diol] (in DMSO)
Description: as §1

[6] = compound: C=C(C)C(=O)OCCC(F)(F)C(F)(F)C(F)(F)C(F)(F)C(F)(F)C(F)(F)C(F)(F)C(F)(F)F [8:2 Fluorotelomer methacrylate] (in DMSO)
Description: as §1

Test System	level (log10) ([1]; 6700 nM)	level (log10) ([1]; 20000 nM)	level (log10) ([1]; 60000 nM)	level (log10) ([2]; 1500 nM)	level (log10) ([2]; 4400 nM)	level (log10) ([2]; 13000 nM)	level (log10) ([2]; 40000 nM)	level (log10) ([3]; 6700 nM)	level (log10) ([3]; 20000 nM)	level (log10) ([3]; 60000 nM)	level (log10) ([4]; 1500 nM)	level (log10) ([4]; 4400 nM)	level (log10) ([4]; 13000 nM)	level (log10) ([4]; 40000 nM)	level (log10) ([5]; 6700 nM)	level (log10) ([5]; 20000 nM)	level (log10) ([5]; 60000 nM)	level (log10) ([6]; 6700 nM)	level (log10) ([6]; 20000 nM)
CASM3C:LDLR	-0.0135 ± 0.011	-0.0245 ± 0.023	0.0035 ± 0.044	0.05 ± 0.0057	0.03 ± 0.033	0.0065 ± 0.03	0.031 ± 0.05	-0.0555 ± 0.086	-0.0425 ± 0.044	-0.0125 ± 0.00071	-0.0275 ± 0.0021	-0.0135 ± 0.00071	-0.0215 ± 0.0092	-0.0165 ± 0.011	0.0045 ± 0.005	-0.0015 ± 0.0035	0.0075 ± 0.032	-0.0085 ± 0.018	0.0055 ± 0.026
CASM3C:M-CSF	-0.027 ± 0.021	-0.035 ± 0.021	0.029 ± 0.034	0.157 ± 0.031	0.155 ± 0.023	0.141 ± 0.0085	0.151 ± 0.0092	0.025 ± 0.024	-0.0195 ± 0.022	0.0045 ± 0.063	-0.0215 ± 0.0021	-0.0305 ± 0.0035	-0.039 ± 0.028	-0.02 ± 0.047	-0.0185 ± 0.035	-0.0215 ± 0.0078	-0.012 ± 0.035	-0.0325 ± 0.019	-0.019 ± 0.067
CASM3C:PAI-I	-0.0015 ± 0.0021	0.0005 ± 0.0035	0.0095 ± 0.0064	0.011 ± 0.018	0.0125 ± 0.018	0.0145 ± 0.015	0.015 ± 0.0028	-0.008 ± 0.0028	-0.0015 ± 0.0035	0.005 ± 0.0071	0.006 ± 0.0057	0.0075 ± 0.0064	0.009 ± 0.0042	0.008 ± 0.0042	-0.006 ± 0.0099	-0.006	0.012 ± 0.0042	0.001 ± 0.0014	0.0065 ± 0.011
CASM3C:Proliferation	0.0025 ± 0.076	-0.051 ± 0.047	-0.0245 ± 0.069	0.084 ± 0.025	0.033 ± 0.024	0.062 ± 0.025	0.059 ± 0.0042	-0.018 ± 0.055	0.0175 ± 0.07	-0.0245 ± 0.03	0.0285 ± 0.0092	-0.026	-0.028 ± 0.016	-0.034 ± 0.028	-0.01 ± 0.0057	-0.024 ± 0.0099	-0.0305 ± 0.044	-0.01 ± 0.017	-0.0245 ± 0.035
CASM3C:SRB	-0.001 ± 0.0014	-0.001 ± 0.0028	-0.0045 ± 0.011	-0.0005 ± 0.016	-0.008 ± 0.017	-0.013 ± 0.0057	-0.0115 ± 0.00071	0.0025 ± 0.0035	0.0015 ± 0.0021	0.0045 ± 0.00071	0.004 ± 0.0057	0.0045 ± 0.00071	-0.0075 ± 0.0035	-0.011 ± 0.0014	-0.001 ± 0.0085	-0.001 ± 0.0085	-0.007 ± 0.011	-0.006 ± 0.0028	-0.0015 ± 0.005
CASM3C:Serum Amyloid A	-0.0435 ± 0.015	-0.0465 ± 0.0064	-0.0075 ± 0.081	0.489 ± 0.034	0.473 ± 0.015	0.4675 ± 0.0021	0.469 ± 0.022	-0.077 ± 0.014	-0.058 ± 0.044	-0.0135 ± 0.049	0.03 ± 0.051	-0.027 ± 0.0028	-0.0305 ± 0.032	-0.013 ± 0.048	-0.013 ± 0.038	-0.0215 ± 0.033	-0.022 ± 0.035	-0.045 ± 0.0057	-0.02 ± 0.078
HDF3CGF:CCL2/MCP-1	0.0035 ± 0.035	0.012 ± 0.018	0.019 ± 0.064	-0.015 ± 0.035	-0.0405 ± 0.023	-0.038 ± 0.0099	-0.044 ± 0.0085	-0.046 ± 0.027	-0.014 ± 0.068	-0.0225 ± 0.047	0.006	0.0055 ± 0.0035	0.005 ± 0.014	0.021 ± 0.038	-0.012	-0.0175 ± 0.015	-0.0185 ± 0.016	-0.0095 ± 0.016	-0.012 ± 0.023
HDF3CGF:CD54/ICAM-1	-0.0185 ± 0.0078	-0.0275 ± 0.0064	-0.0215 ± 0.0092	0.004 ± 0.0057	0.029 ± 0.042	0.01 ± 0.038	0.026 ± 0.013	0	-0.01 ± 0.0014	0.009 ± 0.023	0.0035 ± 0.035	-0.007 ± 0.028	0.0075 ± 0.023	-0.0165 ± 0.039	-0.01 ± 0.0099	0.009 ± 0.0099	0.019 ± 0.0014	0.0035 ± 0.021	0.0055 ± 0.013
